The nature of series [1]: Acute toxicity in KM mouse assessed as change in survival rate upto 1000 mg/kg,ip and measured after 14 days. In kind it is organism-based. Particulars: in vivo, 336 h, time 14 day.
The nature of series [2]: Cytotoxicity in human HepG2 cells assessed as reduction in cell viability incubated for 48 hrs by MTT assay. In kind it is toxicity, cell-based.
The target of series [3] is T1, Beta-secretase 1 (Homo sapiens, UniProt P56817). Put plainly: Inhibition of recombinant human BACE1 using fluorogenic polypeptide Mca-SEVNLDAEFRK(Dpn)RRNH2 as substrate at 10 uM incubated for 60 mins by FRET assay relative to control.
Series [4] can be described thus: Cytotoxicity in human HL7702 cells assessed as reduction in cell viability incubated for 48 hrs by MTT assay. The format is toxicity, cell-based. Particulars: HL7702 (L02) cells.
The target of series [5] is Acetylcholinesterase (Electrophorus electricus) (UniProt O42275). Put plainly: Competitive inhibition of electric eel AChE assessed as increase in slope using acetylthiocholine iodine as substrate preincubated for 20 mins followed by concentrations of substrate addition and measured after 20 mins by Lineweaver-Burk plot analysis. The following applies: time 40.0 min.
The nature of series [6]: Cytotoxicity in human SH-SY5Y cells assessed as reduction in cell viability incubated for 48 hrs by MTT assay. The format is toxicity, cell-based.
Series [7] concerns the target Cholinesterase (Equus caballus, UniProt P81908). Put plainly: Inhibition of equine serum BuChE using butylthiocholine iodine as substrate preincubated for 20 mins followed by substrate addition and measured after 20 mins by DTNB reagent based Ellman's method.
Series [8] can be described thus: Acute toxicity in KM mouse assessed as change in behavior upto 1000 mg/kg,ip and measured after 14 days. The following applies: in vivo, 336 h, time 14 day. The format is organism-based.
Series [9] is described as follows: Selectivity index, ratio of IC50 for inhibition of equine serum BuChE to IC50 for inhibition of electric eel AChE.
The nature of series [10]: Effective permeability of the compound in PBS buffer at pH 7.4/EtOH buffer (7:3) incubated for 20 hrs by UV-plate spectroscopy based PAMPA-BBB assay.
Series [11] can be described thus: Acute toxicity in KM mouse assessed as body weight change upto 1000 mg/kg,ip and measured after 14 days. The format is organism-based. The following applies: in vivo, 336 h, time 14 day.
The target in series [12] is T1, Beta-secretase 1. Kind of series: Inhibition of recombinant human BACE1 using fluorogenic polypeptide Mca-SEVNLDAEFRK(Dpn)RRNH2 as substrate incubated for 60 mins by FRET assay.
The target of series [13] is T2, Acetylcholinesterase (Electrophorus electricus, UniProt O42275). Put plainly: Inhibition of electric eel AChE using acetylthiocholine iodine as substrate preincubated for 20 mins followed by substrate addition and measured after 20 mins by DTNB reagent based Ellman's method.
Series [14] addresses T2, Acetylcholinesterase. Kind of series: Competitive inhibition of electric eel AChE assessed as dissociation constant using acetylthiocholine as substrate by Lineweaver-Burk plot analysis.

The structures appear in SMILES notation. Active and inactive are the calls of the source. The calls are words filed in the database; no cut-off is given here.

T2 sequence (O42275 whole entry): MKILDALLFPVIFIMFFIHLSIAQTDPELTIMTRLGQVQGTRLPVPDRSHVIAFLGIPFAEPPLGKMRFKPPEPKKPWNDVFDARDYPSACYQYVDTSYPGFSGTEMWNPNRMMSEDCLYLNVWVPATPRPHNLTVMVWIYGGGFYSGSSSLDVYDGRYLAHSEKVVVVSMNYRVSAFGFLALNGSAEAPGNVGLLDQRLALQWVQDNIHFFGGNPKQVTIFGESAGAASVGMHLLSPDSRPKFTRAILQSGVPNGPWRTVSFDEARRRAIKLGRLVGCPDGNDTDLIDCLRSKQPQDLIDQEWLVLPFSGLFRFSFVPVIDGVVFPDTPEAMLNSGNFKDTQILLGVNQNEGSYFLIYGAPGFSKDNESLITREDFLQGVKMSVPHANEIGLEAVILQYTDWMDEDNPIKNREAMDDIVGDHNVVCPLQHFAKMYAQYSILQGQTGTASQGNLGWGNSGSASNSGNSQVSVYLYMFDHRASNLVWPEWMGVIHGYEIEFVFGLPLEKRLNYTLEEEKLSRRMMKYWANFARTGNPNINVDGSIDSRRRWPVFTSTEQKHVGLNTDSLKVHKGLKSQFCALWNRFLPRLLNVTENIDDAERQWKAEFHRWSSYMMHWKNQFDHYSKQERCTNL
T1 sequence (P56817 whole entry): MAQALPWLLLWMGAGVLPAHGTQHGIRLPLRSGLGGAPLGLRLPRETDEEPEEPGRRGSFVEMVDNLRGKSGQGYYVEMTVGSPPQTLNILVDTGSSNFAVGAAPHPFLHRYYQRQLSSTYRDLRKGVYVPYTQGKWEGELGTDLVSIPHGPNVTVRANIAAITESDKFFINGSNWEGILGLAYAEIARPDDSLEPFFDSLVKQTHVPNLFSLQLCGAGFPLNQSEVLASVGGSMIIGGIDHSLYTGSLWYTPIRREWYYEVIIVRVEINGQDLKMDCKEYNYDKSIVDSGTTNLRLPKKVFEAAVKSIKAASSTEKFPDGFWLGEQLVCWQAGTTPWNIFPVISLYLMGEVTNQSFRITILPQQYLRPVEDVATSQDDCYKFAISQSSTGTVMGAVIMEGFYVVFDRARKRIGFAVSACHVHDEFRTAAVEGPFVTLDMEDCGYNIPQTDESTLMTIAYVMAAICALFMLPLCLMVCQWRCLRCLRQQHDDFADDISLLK
Chain of Acetylcholinesterase (Electrophorus electricus) (O42275 24-633 limits assumed): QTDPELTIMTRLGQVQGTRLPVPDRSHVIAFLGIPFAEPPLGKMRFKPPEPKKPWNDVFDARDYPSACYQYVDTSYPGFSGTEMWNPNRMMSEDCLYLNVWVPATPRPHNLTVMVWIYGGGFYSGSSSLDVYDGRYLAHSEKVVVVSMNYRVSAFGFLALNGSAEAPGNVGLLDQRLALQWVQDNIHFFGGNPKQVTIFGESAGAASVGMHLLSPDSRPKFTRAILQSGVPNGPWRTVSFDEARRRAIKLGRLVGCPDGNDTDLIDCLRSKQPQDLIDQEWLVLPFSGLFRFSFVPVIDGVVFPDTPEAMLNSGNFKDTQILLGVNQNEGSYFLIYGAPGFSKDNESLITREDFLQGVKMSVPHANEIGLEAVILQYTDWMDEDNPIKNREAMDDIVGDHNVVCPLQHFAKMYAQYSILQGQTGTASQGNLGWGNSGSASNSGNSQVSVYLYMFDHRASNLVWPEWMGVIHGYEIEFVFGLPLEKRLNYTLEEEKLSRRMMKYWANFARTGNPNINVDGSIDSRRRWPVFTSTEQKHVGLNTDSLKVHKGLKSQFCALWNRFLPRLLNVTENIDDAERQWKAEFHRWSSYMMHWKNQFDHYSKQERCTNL
Chain of Cholinesterase (P81908 whole entry): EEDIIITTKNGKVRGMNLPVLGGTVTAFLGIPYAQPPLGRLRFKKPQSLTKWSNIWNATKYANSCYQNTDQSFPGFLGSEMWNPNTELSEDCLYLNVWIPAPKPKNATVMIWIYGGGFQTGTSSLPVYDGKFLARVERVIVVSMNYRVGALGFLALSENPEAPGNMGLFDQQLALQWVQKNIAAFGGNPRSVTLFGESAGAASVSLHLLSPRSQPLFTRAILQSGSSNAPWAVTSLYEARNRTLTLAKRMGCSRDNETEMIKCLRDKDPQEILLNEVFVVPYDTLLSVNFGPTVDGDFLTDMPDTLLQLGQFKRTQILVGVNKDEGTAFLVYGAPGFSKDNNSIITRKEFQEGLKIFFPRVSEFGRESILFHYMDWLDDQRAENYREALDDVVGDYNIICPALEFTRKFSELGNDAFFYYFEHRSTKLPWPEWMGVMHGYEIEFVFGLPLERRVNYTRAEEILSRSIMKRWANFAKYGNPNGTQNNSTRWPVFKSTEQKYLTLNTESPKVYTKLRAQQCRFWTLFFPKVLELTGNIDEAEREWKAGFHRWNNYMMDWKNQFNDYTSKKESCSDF

On to `O=c1cc(OCCCNC2CCN(Cc3ccccc3)CC2)c2ccc(-c3cccnc3)cc2o1`, for which the Activity result in series [1], in series [8] and in series [11] was “Non-Toxic” in each case. Further, the figures for the IC50 at 48 h in series [2], in series [4] and in [6] were 10.2 µM, 34.7 µM and 10.7 µM, respectively. Also, in series [3], the inhibition was found to be 86.8%. The inhibition result in [5] is “Active”. Also, the results for the IC50 in [7], in series [12] and in series [13] were 32.3 µM, 1230 nM and 1310 nM, respectively. Besides, the Ratio IC50 in [9] stood at 24.6. In [10], this molecule had a Papp at 20 h of 22.8 ×10⁻⁶ cm/s. The Ki in [14] stood at 2640 nM.
